Test results from patent publication US20150141460A1, “Anti-inflammatory Compositions” (Cambridge Enterprise Limited, priority 2007, published 2015).
pEC50: −log10 of the molar value. Like-named read-outs stand apart in the source and are kept apart here.

Columns and labels:
[1] = Identification of the primary metabolites in pooled rat urine by LC-MS-MS; type: in vivo; settings: single oral dose 3 mg/kg in 1% CMC, pooled urine over 24 hrs, qualitative
Procedure: (§1) Urine was collected from rats exposed to a single oral dose (3 mg/kg in 1% CMC) of each compound over a 24 hour period in metabolic cages. The pooled urine sample was then subjected to full scan mass spectral analysis, using the same LC-MS conditions as described in example 1 above. Further MS-MS analysis of the product ions was then performed, and likely fragmentations/re-arrangements assigned from the publicly available Metabolite ID database.
For the major metabolites, the assigned structures were confirmed by synthesis of authentic samples, using methods well known in the art, which were subject to LC-MS-MS analysis under the same conditions as the urine samples.
Note that metabolite ID studies provide only qualitative estimates of the relative amounts of the different metabolites present, and separately validated assays with appropriate internal standards would be required to quantitate each metabolite species.

[2] = test system: MCP-1 induced migration of THP-1 cells; experiment: ChemoTx transwell migration assay, MCP-1 induced migration of THP-1 cells; type: cell-based; settings: Homo sapiens
Procedure: FIGS. 6A-6F show representative dose response curves for the inhibition of chemokine-induced leukocyte migration in vitro, for each of the five compounds (I′) to (V) in the ChemoTx™ transwell migration assay. In each experiment, THP-1 cells were induced to migrate using a maximally effective dose of the chemokine MCP-1 in the presence or absence of various doses (from 10 pM to 1 μM) of each compound. An appropriate vehicle control was used in each experiment. The percentage inhibition of MCP-1 induced migration (calculated as the number of cells migrated in the presence of MCP-1 minus the number of cells migrated with MCP-1 omitted from the lower chamber) at each concentration of each test compound is shown as the mean of triplicate determinations, with whiskers representing SEM. The ED50 was estimated by linear interpolation of the presented graphs. The Y-axis of each graph represents the percentage inhibition of MCP-1 induced migration; the X-axis represents the concentration of test compound present in units of nM (0.01-1000).
In principle, this assay consists of two chambers separated by a porous membrane. The chemoattractant is placed in the lower compartment and the cells are placed in the upper compartment. After incubation for a period at 37° C. the cells move towards the chemoattractant, and the number of cells in the lower compartment is proportional to the chemoattractant activity (relative to a series of controls).
The THP-1 cell line (European Cell Culture Collection) were used as the leukocyte cell population.
First, the cell suspension to be placed in the upper compartment is prepared. The THP-1 cells are pelleted by centrifugation (770×g; 4 mins) and washed with Geys Balanced Salt Solution with 1 mg/ml BSA (GBSS+BSA). This wash is then repeated, and the cells repelleted before being resuspended in a small volume of GBSS+BSA for counting, for example using a standard haemocytometer.
The volume of GBSS+BSA is then adjusted depending on the number of cells present so that the cells are at final density of 4.45×10^6 cells per ml of GBSS+BSA. This ensures that there are […] THP-1 cells in each 25 μl of the solution that will be placed in the upper chamber of the plate.
To test a single compound for its ability to inhibit chemokine induced migration, it is necessary to prepare two lots of cells. The suspension of THP-1 cells at 4.45×10^6 cells/ml is divided into two pots. To one pot the inhibitor under test is added at an appropriate final concentration, in an appropriate vehicle (for example at 1 μM in not more than 1% DMSO). To the second pot an equal volume of GBSS+BSA plus vehicle as appropriate (e.g. not more than 1% DMSO) is added to act as a control.
Next, the chemoattractant solution to be placed in the lower compartment is prepared. […]

[3] = Distribution of unchanged compound into tissues and urine 24 hrs after a single dose in rat; type: in vivo; settings: for Urine (ng/ml) unchanged parent compound: 24 hrs after a single oral dose 3 mg/kg in 1% CMC
Procedure: as §1
To provide a quantitative estimate of the degree of metabolism suffered by each of the compounds tested, the amount of unchanged parent compound in urine was measured using the same validated LC-MS assay described in example 1, using (S)-3-(2′,2′-dimethylpropanoylamino)-caprolactam as an internal standard. In addition, the level of compounds in various target tissues was also determined.

[4] = THP-1 cell line, maximal dose of chemoattractant, Table 6, read-out: ED50 MCP-1 induced migration
[5] = THP-1 cells, Table 5, read-out: Functional ED50 versus MCP-1

CC(C)(C)C(=O)N[C@H]1CCCNC1=O [Compound (I′), (S)-3-(2′,2′-dimethylpropanoylamino)-tetrahydropyridin-2-one]
major metabolites / route of metabolism detected in urine [1]: no significant metabolites | pEC50 [2, 4]: 10.30 | pEC50 [2, 5]: 10.30 | Urine (ng/ml) unchanged parent compound [3]: 24567 ng/mL | unchanged parent compound recovered in urine, % of the injected dose ([3]; single oral dose 3 mg/kg in 1% CMC, 24 hrs): more than 60%

O=C1NCCCC[C@@H]1NC(=O)C12CC3CC(CC(O)(C3)C1)C2 [Compound (V), 3-(3′-hydroxyadamantyl-1-carbonylamino)-caprolactam]
major metabolites / route of metabolism detected in urine [1]: the glucuronidated compound was the major metabolite | pEC50 [2, 4]: 9.92 | pEC50 [2, 5]: 9.92 | Urine (ng/ml) unchanged parent compound [3]: 16300 ng/mL
